{
  "source": "patent US7053097B1",
  "about": "“Inhibitors of glycogen synthase 3 kinase” (Chiron Corporation, priority 1996, dated 2006)",
  "molecular_target": "GSK-3β (Homo sapiens, UniProt P49841)",
  "sequence (P49841 whole entry, species assumed)": "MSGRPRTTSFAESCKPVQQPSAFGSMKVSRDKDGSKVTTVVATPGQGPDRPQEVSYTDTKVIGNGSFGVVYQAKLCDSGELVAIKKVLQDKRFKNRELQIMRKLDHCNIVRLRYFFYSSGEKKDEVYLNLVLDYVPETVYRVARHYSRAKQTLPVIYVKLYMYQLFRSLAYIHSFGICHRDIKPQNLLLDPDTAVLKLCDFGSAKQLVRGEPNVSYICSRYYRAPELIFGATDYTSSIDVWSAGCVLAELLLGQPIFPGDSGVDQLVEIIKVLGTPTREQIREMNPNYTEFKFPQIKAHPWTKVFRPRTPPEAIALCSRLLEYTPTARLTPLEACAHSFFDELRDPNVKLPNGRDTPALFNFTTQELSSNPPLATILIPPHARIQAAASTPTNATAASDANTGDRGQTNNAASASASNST",
  "assay": "GSK3 kinase inhibition assay, biotin-phosphopeptide substrate, streptavidin plate scintillation counting",
  "format": "biochemical",
  "details": "compound at 1 μM; 180 min at room temperature",
  "method": "(B) The compounds prepared in Example 1 above were assayed for activity as follows:\nA 96-well round bottom plate was blocked by incubation with 400 μl/well 1% BSA/PBS for 60 min at room temperature. The blocking reagent was then aspirated. An enzyme/substrate buffer was prepared (1.225 ml 1M Tris-HCl, pH 7.5, 0.41 ml 1M MgCl2, 41 μl DTT, 250 μl 500 μg/ml GSK-3β, 9.5 μl 5 mg/ml biotin-phosphopeptide, 33.1 ml 1% BSA/PBS), and 300 μl enzyme/substrate/buffer was added to each well.\nVarying concentrations of each compound were added to individual wells, or staurosporine in DMSO (final concentrations of staurosporine 100 nM or 20 nM). Next 50 μl/well ATP mixture (3.85 μl 10 mM cold ATP, 8 μl hot ATP, 5.5 ml H2O) was added, and the reaction allowed to proceed for 180 min at room temperature.\nThree streptavidin-coated Labsystems Combiplate 8 plates were blocked with 1% BSA/PBS, 300 μl/well, for ≧60 min at room temperature, and the blocking reagent aspirated. Stopping reagent (50 μM ATP, 20 mM EDTA) (100 μl/well) was added to the streptavidin-coated plates, and 100 μl of the enzyme reaction mixture transferred to the streptavidin-coated plates in triplicate. […] Finally, Microscint-20 scintillation fluid (200 μl/well) was added to the plates, the plates sealed, and after incubating for 30 min, counted on a TopCount counter.",
  "data": [
    {"compound": "COCC(=O)N(CC(N)=O)c1nc(NCc2ccc(C(F)(F)F)cc2)c2ncn(C)c2n1", "note": "[Compound 21208]", "values": [
      {"measurement": "inhibition at 1 µM", "value": 63, "unit": "%"}
    ]}
  ]
}
